What all share (type): functional
The test system of assay [1] is Nephotettix cincticeps. Kind of assay: Insecticidal activity against green rice Nephotettix cincticeps (green rice leafhopper) third-instar larvae assessed as mortality at 3.1 ppm applied through spray measured after 4 days. The conditions noted are these: for mortality at 3.1 ppm: Nephotettix cincticeps, 96 h.
The subject of assay [2] is Nephotettix cincticeps. Kind of assay: Insecticidal activity against green rice Nephotettix cincticeps (green rice leafhopper) third-instar larvae assessed as mortality at 12.5 ppm applied through spray measured after 4 days. The conditions noted are these: 96 h.
Assay [3] concerns Nephotettix cincticeps. Kind of assay: Insecticidal activity against green rice Nephotettix cincticeps (green rice leafhopper) third-instar larvae assessed as mortality at 0.8 ppm applied through spray measured after 4 days. The conditions noted are these: for mortality at 0.8 ppm: Nephotettix cincticeps, 96 h.
The test system of assay [4] is Nephotettix cincticeps. Briefly: Insecticidal activity against green rice Nephotettix cincticeps (green rice leafhopper) third-instar larvae assessed as mortality at 50 ppm applied through spray measured after 4 days. The following applies: 96 h.
The subject of assay [5] is Tetranychus urticae. Briefly: Insecticidal activity against Tetranychus urticae (two-spotted spider mite) assessed as mortality at 12.5 ppm.
Assay [6] has as its system Plutella xylostella. Kind of assay: Insecticidal activity against Plutella xylostella (diamondback moth) third-instar larvae in compound treated cabbage leaf assessed as mortality at 12.5 ppm measured after 4 days. The following applies: 96 h.
The subject of assay [7] is Nilaparvata lugens. Kind of assay: Insecticidal activity against Nilaparvata lugens (brown planthopper) third-instar larvae assessed as mortality at 12.5 ppm applied through spray measured after 5 days. The following applies: 120 h.
The test system of assay [8] is Tetranychus urticae. Briefly: Insecticidal activity against Tetranychus urticae (two-spotted spider mite) assessed as mortality at 3.1 ppm.
Assay [9] deals with Myzus persicae. Kind of assay: Insecticidal activity against Myzus persicae (green peach aphid) assessed as mortality at 12.5 ppm measured after 4 days. The conditions noted are these: 96 h.
Assay [10] deals with Nilaparvata lugens. Briefly: Insecticidal activity against Nilaparvata lugens (brown planthopper) third-instar larvae assessed as mortality at 0.8 ppm applied through spray measured after 5 days. The conditions noted are these: 120 h.
The test system of assay [11] is Nilaparvata lugens. Briefly: Insecticidal activity against Nilaparvata lugens (brown planthopper) third-instar larvae assessed as mortality at 3.1 ppm applied through spray measured after 5 days. The conditions noted are these: 120 h.
The subject of assay [12] is Plutella xylostella. Briefly: Insecticidal activity against Plutella xylostella (diamondback moth) third-instar larvae in compound treated cabbage leaf assessed as mortality at 0.8 ppm measured after 4 days. The conditions noted are these: 96 h.
For assay [13], the system named is Plutella xylostella. Briefly: Insecticidal activity against Plutella xylostella (diamondback moth) third-instar larvae in compound treated cabbage leaf assessed as mortality at 3.1 ppm measured after 4 days. The conditions noted are these: 96 h.
Assay [14] deals with Myzus persicae. Briefly: Insecticidal activity against Myzus persicae (green peach aphid) assessed as mortality at 3.1 ppm measured after 4 days. The conditions noted are these: 96 h.
Assay [15] relates to Myzus persicae. Briefly: Insecticidal activity against Myzus persicae (green peach aphid) assessed as mortality at 0.8 ppm measured after 4 days. The following applies: 96 h.

The structures appear in SMILES notation.

For the compound `Cc1nn(C)c(C(=O)NCc2ccc(Oc3ccc(C(F)(F)F)cc3)cc2)c1Cl`, in [1], the mortality at 3.1 ppm was 80%. The mortality at 12.5 ppm in assay [2] worked out at 80%. The mortality at 0.8 ppm in [3] turned out to be 30%. Further, the mortality at 50 ppm in assay [4] is 100%.
For the compound `CC1CCc2c1nn(C)c2C(=O)NCc1ccc(C(C)(C)C)cc1` (stereo unspecified), the mortality at 12.5 ppm in [5] was 100%; in assay [6], 0%; in assay [2], 30%; in [7], 0%; in [9], 0%. Also, in assay [8], the mortality at 3.1 ppm amounted to 100%.
As to `CC1CCc2c1nn(C)c2C(=O)NCc1ccc(Oc2ccc(C#N)cc2)cc1` (stereo unspecified), the mortality at 3.1 ppm in assay [1] was determined as 0%; in assay [11], 80%; in assay [8], 100%; in [13], 100%; in assay [14], 80%. Further, the mortality at 0.8 ppm in assay [10] is 80%; in assay [12], 30%; in [15], 0%. Besides, the mortality at 12.5 ppm in assay [5] is 100%; in assay [6] it was 100%; in [2] it was 30%; in assay [7], 100%; in [9] it was 100%.
Turning to `CC1CCc2c1nn(C)c2C(=O)NC(C)(C)c1ccc(Oc2ccc(C(F)(F)F)cc2)cc1` (stereo unspecified), the mortality at 50 ppm in assay [4] came out at 0%.
`CC(C)c1nn(C)c(C(=O)NCc2ccc(Oc3ccc(C(F)(F)F)cc3)cc2)c1Cl`: the mortality at 3.1 ppm in assay [1] was determined as 30%. Also, the mortality at 12.5 ppm in assay [2] came out at 80%. Moreover, the mortality at 50 ppm in assay [4] is 80%.
On to `Cn1nc2c(c1C(=O)NCc1ccc(Oc3ccc(C(F)(F)F)cc3)cc1)CCC2`, for which the mortality at 3.1 ppm in [1] stood at 100%. Also, the mortality at 12.5 ppm in assay [2] turned out to be 100%. The mortality at 0.8 ppm in assay [3] is 0%. Besides, the mortality at 50 ppm in assay [4] was determined as 100%.
For `CCC1CCc2c1nn(C)c2C(=O)NCc1ccc(Oc2ccc(C(F)(F)F)cc2)cc1` (stereo unspecified), the mortality at 3.1 ppm in assay [1] is 30%. Also, the mortality at 12.5 ppm in assay [2] was 100%. Further, in [3], the mortality at 0.8 ppm came to 0%. Further, the mortality at 50 ppm in assay [4] amounted to 100%.
`Cn1nc2c(c1C(=O)NCc1ccc(Oc3ccc(C(F)(F)F)cc3)cc1)CCCC2`: the mortality at 3.1 ppm in assay [1] came to 80%. Also, the mortality at 12.5 ppm in assay [2] was 80%. In [3], the mortality at 0.8 ppm was determined as 0%. For the same compound, the mortality at 50 ppm in [4] came to 100%.
`CC1CCCc2c1nn(C)c2C(=O)NCc1ccc(Oc2ccc(C(F)(F)F)cc2)cc1` (stereo unspecified): the mortality at 3.1 ppm in assay [1] was determined as 0%. The mortality at 12.5 ppm in [2] amounted to 100%. Further, in [3], the mortality at 0.8 ppm amounted to 0%. In addition, the mortality at 50 ppm in [4] came to 100%.
For the compound `CCc1nn(C)c(C(=O)NCc2ccc(Oc3ccc(C(F)(F)F)cc3)cc2)c1Br`, the mortality at 3.1 ppm in assay [1] was found to be 30%. Further, in assay [2], the mortality at 12.5 ppm came to 100%. In assay [3], the mortality at 0.8 ppm was found to be 30%. In assay [4], the mortality at 50 ppm was determined as 100%.
As for `CCc1nn(C)c(C(=O)NCc2ccc(Oc3ccc(C(F)(F)F)cc3)cc2)c1F`, the mortality at 3.1 ppm in [1] came out at 30%. In addition, in assay [2], the mortality at 12.5 ppm stood at 100%. Moreover, the mortality at 0.8 ppm in assay [3] was found to be 0%. In addition, the mortality at 50 ppm in assay [4] was determined as 100%.
With `CCc1cc(C(=O)NCc2ccc(Oc3ccc(C(F)(F)F)cc3)cc2)n(C)n1`, the mortality at 3.1 ppm in assay [1] worked out at 30%. Also, the mortality at 12.5 ppm in assay [2] stood at 100%. Also, the mortality at 50 ppm in assay [4] turned out to be 100%.
Turning to `Cn1ncc(Cl)c1C(=O)NCc1ccc(Oc2ccc(C(F)(F)F)cc2)cc1`, the mortality at 3.1 ppm in [1] stood at 30%. Also, in [2], the mortality at 12.5 ppm was found to be 80%. For the same compound, in [4], the mortality at 50 ppm was 100%.
The matching figures for `CCc1nn(C)c(C(=O)NCc2ccc(Oc3ccc([N+](=O)[O-])cc3)cc2)c1Cl`: 100%, 100% and 100%.
The matching figures for `CCc1nn(C)c(C(=O)NCc2ccc(Oc3ccc(C#N)cc3)cc2)c1Cl`: 0%, 100% and 100%.
The matching figures for `CCc1nn(C)c(C(=O)NCc2ccc(Oc3ccc(C(F)(F)F)cc3)cc2)c1Cl`: 30%, 100% and 100%.
In the case of `CCc1nn(C)c(C(=O)NCc2ccc(Oc3ccc(C(F)F)cc3)cc2)c1Cl`, the mortality at 3.1 ppm in [1] turned out to be 100%. Further, the mortality at 12.5 ppm in assay [2] turned out to be 100%. In addition, the mortality at 50 ppm in assay [4] stood at 100%.
In the case of `CCc1nn(C)c(C(=O)NCc2ccc(Oc3ccc(S(C)(=O)=O)cc3)cc2)c1Cl`, in [1], the mortality at 3.1 ppm stood at 30%. Besides, the mortality at 12.5 ppm in assay [2] was found to be 100%. In addition, the mortality at 50 ppm in [4] stood at 100%.
Turning to `CCc1nn(C)c(C(=O)NCc2ccc(Oc3ccc([S+](C)[O-])cc3)cc2)c1Cl` (stereo unspecified), the mortality at 3.1 ppm in assay [1] was 30%. Moreover, in [2], the mortality at 12.5 ppm amounted to 100%. The mortality at 50 ppm in [4] worked out at 100%.
Turning to `CCc1nn(C)c(C(=O)NCc2ccc(Oc3ccc(SC(C)C)cc3)cc2)c1Cl`, the mortality at 3.1 ppm in [1] was 30%. Further, the mortality at 12.5 ppm in assay [2] came out at 30%. Further, in [4], the mortality at 50 ppm was found to be 100%.
For `CCSc1ccc(Oc2ccc(CNC(=O)c3c(Cl)c(CC)nn3C)cc2)cc1`, the mortality at 3.1 ppm in [1] was found to be 30%. Besides, the mortality at 12.5 ppm in assay [2] was found to be 80%. In addition, the mortality at 50 ppm in assay [4] was 100%.
For `CCc1nn(C)c(C(=O)NCc2ccc(Oc3ccc(SC)cc3)cc2)c1Cl`, in that order: 80%, 100% and 100%.
For `CCc1nn(C)c(C(=O)NCc2ccc(Oc3ccc(Cl)cc3)cc2)c1Cl`, the mortality at 3.1 ppm in [1] is 80%. Besides, the mortality at 12.5 ppm in assay [2] was found to be 80%. Moreover, the mortality at 50 ppm in assay [4] is 100%.
Consider `CCc1nn(C)c(C(=O)NCc2ccc(Oc3ccc(OCC(F)(F)F)cc3)cc2)c1Cl`, for which the mortality at 12.5 ppm in assay [2] amounted to 30%. For the same compound, the mortality at 50 ppm in assay [4] was 100%.
Turning to `CCc1nn(C)c(C(=O)NCc2ccc(Oc3ccc(OC(F)F)cc3)cc2)c1Cl`, the mortality at 3.1 ppm in assay [1] was 80%. Also, the mortality at 12.5 ppm in assay [2] stood at 100%. Besides, the mortality at 50 ppm in assay [4] came to 100%.
`CCc1nn(C)c(C(=O)NCc2ccc(Oc3ccc(OC)cc3)cc2)c1Cl`: in assay [1], the mortality at 3.1 ppm is 30%. Also, the mortality at 12.5 ppm in assay [2] came to 100%. The mortality at 50 ppm in assay [4] is 100%.
Turning to `CCc1nn(C)c(C(=O)NCc2ccc(Oc3ccc(OC(C)C)cc3)cc2)c1Cl`, the mortality at 3.1 ppm in [1] worked out at 0%. For the same compound, the mortality at 12.5 ppm in assay [2] stood at 30%. In addition, in assay [4], the mortality at 50 ppm stood at 80%.
`CCc1nn(C)c(C(=O)NCc2ccc(Oc3ccc(CC(C)C)cc3)cc2)c1Cl`: the mortality at 50 ppm in [4] came out at 0%.
`CCc1ccc(Oc2ccc(CNC(=O)c3c(Cl)c(CC)nn3C)cc2)cc1`: the mortality at 3.1 ppm in [1] was 30%. In assay [2], the mortality at 12.5 ppm was 80%. Also, in [4], the mortality at 50 ppm came to 100%.
Turning to `CCc1nn(C)c(C(=O)NCc2ccc(Oc3ccc(C(C)C)cc3)cc2)c1Cl`, the mortality at 12.5 ppm in assay [2] came to 30%. Further, in [4], the mortality at 50 ppm came to 80%.
Take `CCc1nn(C)c(C(=O)NCc2ccc(Oc3ccccc3)cc2)c1Cl`: in [2], the mortality at 12.5 ppm stood at 30%. The mortality at 50 ppm in assay [4] amounted to 100%.
Regarding `CC1CCc2c1nn(C)c2C(=O)NCc1ccc(Oc2ccc(C(F)(F)F)cc2)cc1` (racemic), the mortality at 0.8 ppm in assay [10] stood at 100%; in [12], 0%; in [15], 100%. Also, the mortality at 12.5 ppm in [5], in assay [6], in assay [7] and in assay [9] was 100% each time. For the same compound, the mortality at 3.1 ppm turned out to be 100% in assay [11], 100% in [8], 80% in assay [13] and 100% in [14]. For the same compound, the mortality in assay [3] is 30%.
For the compound `CC1CCc2c1nn(C)c2C(=O)NCc1ccc(Oc2ccc(C(F)(F)F)cc2)cc1` (single isomer, unassigned; (+)), the mortality in [1] came to 30%.
Regarding `CC1CCc2c1nn(C)c2C(=O)NCc1ccc(Oc2ccc(C(F)(F)F)cc2)cc1` (single isomer, unassigned; (-)), the mortality in assay [1] is given as 100%; in assay [3], 80%. In assay [2], the mortality at 12.5 ppm turned out to be 100%. The mortality at 50 ppm in assay [4] amounted to 100%.
For `CC1CCc2c1nn(C)c2C(=O)NC(C)c1ccc(Oc2ccc(C(F)(F)F)cc2)cc1` (single isomer, unassigned; diastereomer 2), in assay [1], the mortality at 3.1 ppm stood at 80%. For the same compound, the mortality at 12.5 ppm in assay [2] came to 100%. Further, the mortality at 0.8 ppm in assay [3] came to 0%. Further, the mortality at 50 ppm in [4] came out at 100%.
`CCc1nn(C)c(C(=O)NCc2ccc(C(C)(C)C)cc2)c1Cl` [TEBUFENPYRAD]: the mortality at 12.5 ppm in assay [5] stood at 100%; in assay [6] it was 0%; in [2], 0%; in assay [7], 0%; in [9], 30%. The mortality at 3.1 ppm in assay [8] stood at 100%.
`CCc1nn(C)c(C(=O)NCc2ccc(Oc3ccc(C)cc3)cc2)c1Cl` [TOLFENPYRAD]: the mortality at 3.1 ppm in [1] is 30%. Also, in [2], the mortality at 12.5 ppm amounted to 100%. For the same compound, the mortality at 50 ppm in assay [4] was 100%.

The record behind these values is ChEMBL document CHEMBL3044915, “Synthesis and Insecticidal Activity of N-(4-Aryloxybenzyl)-pyrazolecarboxamide Derivatives” (1996).
